Reference: ChEMBL document CHEMBL1144671, “Non-ATP competitive glycogen synthase kinase 3beta (GSK-3beta) inhibitors: study of structural requirements for thiadiazolidinone derivatives” (Bioorg Med Chem, 2008)

Assay: Inhibition of rabbit recombinant GSK3-beta
Set-up: species or system Oryctolagus cuniculus

Row | Structure (SMILES) | IC50 [µM]
1 | CC(=O)Nc1nsc(NC(C)=O)n1 | > 100
2 | Cc1ccc(-c2nsc(=O)[nH]2)cc1 | > 100
3 | CCOC(=O)Cn1c(-c2ccc(C)cc2)nsc1=O | > 100
4 | O=C(/N=c1\s[nH]c(=O)n1Cc1ccccc1)c1ccccc1 | > 100
5 | O=c1nc(NCc2ccccc2)sn1Cc1ccccc1 | > 100
6 | CCOC(=O)Cn1c(=O)n(Cc2ccccc2)s/c1=N\C(=O)c1ccccc1 | > 100
7 | CCOC(=O)c1nsc(-c2ccccc2)n1 | > 100
8 | Cn1sc(NC(=O)c2ccccc2)nc1=O | > 100
9 | O=C(Nc1nc(=O)[nH]s1)c1ccccc1 | > 100
10 | Cn1s/c(=N\C(=O)c2ccccc2)n(CC(=O)O)c1=O | > 100
11 | Cn1s/c(=N\Cc2ccccc2)n(Cc2ccccc2)c1=O | > 100
12 | CCOC(=O)Cn1c(=O)n(C)s/c1=N\Cc1ccccc1 | > 100
13 | CCOC(=O)c1nc(-c2ccc(Cl)cc2)ns1 | > 100
14 | Cn1s/c(=N\C(=O)c2ccccc2)n(C)c1=O | > 100
15 | Nc1nc(=O)[nH]s1 | 25
16 | Cn1sc(N)nc1=O | 40
17 | Cn1sc(NCCc2ccccc2)nc1=O | 15
18 | CCOC(=O)CNc1nc(=O)n(C)s1 | 20
19 | N#CCn1s/c(=N\C(=O)c2ccccc2)n(CC#N)c1=O | > 100
20 | Cn1sc(Nc2ccc(Br)cc2)nc1=O | 15
21 | Cn1sc(NCc2ccccc2)nc1=O | 20
22 | ClCc1nc(-c2ccccc2)ns1 | > 100
23 | c1ccc(-c2nsc(-c3ccccc3)n2)cc1 | > 100

Row | Structure (SMILES) | IC50 [µM]
24 | CCNc1nsc(NCC)n1 | > 100
25 | Cc1ccc(-c2nsc(S(=O)(=O)c3ccc(C)cc3)n2)cc1 | > 100
26 | CCOC(=O)c1nc(-c2ccc(OC)cc2)ns1 | > 100
27 | CCOC(=O)c1nc(-c2ccccc2)ns1 | > 100
28 | CCOC(=O)c1nc(-c2cc(C(C)(C)C)c(O)c(C(C)(C)C)c2)ns1 | > 100
29 | Cn1s/c(=N\c2ccc(Br)cc2)n(C)c1=O | > 100
30 | CCOC(=O)c1nc(-c2ccc([N+](=O)[O-])cc2)ns1 | > 100
31 | CCOC(=O)Cn1c(=O)n(C)s/c1=N\C(=O)c1ccccc1 | > 100
32 | O=c1nc(NCc2ccccc2)s[nH]1 | 6.5
33 | N#CCn1c(=O)[nH]s/c1=N\C(=O)c1ccccc1 | > 100
34 | CCOC(=O)Nc1nc(=O)n(C)s1 | > 100
35 | Cn1sc(NCCO)nc1=O | > 100
36 | Cc1ccccc1-c1nsc(=O)[nH]1 | > 100
37 | CNc1nc(=O)n(C)s1 | 18
38 | O=C(Nc1nc(=O)n(Cc2ccccc2)s1)c1ccccc1 | > 100
39 | c1cc(Nc2nsc(Nc3ccncc3)n2)ccn1 | > 100
40 | Cn1sc(Nc2ccccc2)nc1=O | 12.5
41 | O=C(O)Cn1c(=O)n(Cc2ccccc2)s/c1=N\C(=O)c1ccccc1 | > 100
42 | O=C(/N=c1\sn(Cc2ccccc2)c(=O)n1Cc1ccccc1)c1ccccc1 | > 100
43 | Cn1s/c(=N\C(=O)c2ccccc2)n(CC#N)c1=O | > 100
44 | Cn1s/c(=N\C(=O)c2ccccc2)n(Cc2ccccc2)c1=O | > 100
45 | c1ccc(Nc2nsc(Nc3ccccc3)n2)cc1 | > 100
46 | Cn1sc(NCC(=O)O)nc1=O | 75
